{"source": "PubChem BioAssay AID2382", "about": "(Broad Institute, 2010)", "note": "Records with an inconclusive call do not appear. The source made the active and inactive calls.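 Rule for the calls: active = IC50 at or below a set limit past the top dose tested; inconclusive = flat curve with 30 to 70% signal change, or a failed fit; inactive = IC50 above that set limit.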", "data": [{"tested_on": "NIH3T3-HGL HSF1-luciferase reporter, MG132-induced, 8 h", "test": "inhibition of MG132-induced HSE-luciferase signal, confirmation, cell-based, NIH3T3, luminescence, dose retest (AID 2382)", "values": [{"smiles": "C#CCOCCOCCOCCNc1nc(N2CCN(C(=O)[C@H](CCC(=O)O)n3cc(C(N)Cc4ccc(O)cc4)nn3)CC2)nc(N2CCN(C(=O)[C@H](Cc3ccc(O)cc3)n3cc(C(N)[C@H](C)CC)nn3)CC2)n1", "note": "(stereo partly drawn)", "IC50": "> 19.5 µM (inactive)"}, {"smiles": "Cc1cc(=O)[nH]c(NN=C2CCC(C(C)(C)C)CC2)n1", "note": "(stereo not drawn)", "IC50": "> 19.5 µM (inactive)"}, {"smiles": "O=C(NN=C1CCC(c2ccccc2)CC1)c1cc2c(s1)CCCC2", "note": "(stereo not drawn)", "IC50": "> 19.5 µM (inactive)"}]}]}
